# Target: T1, human CGRP receptor heterodimer (Homo sapiens, UniProt O60894+Q16602)
# T1 construct: Human SK-N-MC neuroblastoma cells, endogenously expressing the human CGRP receptor, are expanded in culture flasks; host or cells: P2 membranes of SK-N-MC neuroblastoma cells
# Assay: Competition filtration binding with [3H]BIBN-4096 on SK-N-MC cell membranes
# Conditions: [3H]BIBN-4096 130 pM, mean
# Source text: The equilibrium affinity constant (Ki) at the human CGRP receptor heterodimer may be determined using standard competition filtration binding methods with membranes prepared from cultured SK-N-MC neuroblastoma cells (ATCC) and a high-affinity CGRP receptor antagonist.
# Membrane Production: Human SK-N-MC neuroblastoma cells, endogenously expressing the human CGRP receptor, are expanded in culture flasks (Corning, T225) using growth media containing Eagles's Minimum Essential Media (HyClone™) supplemented with 10% heat-inactivated fetal bovine serum (GIBCO®). When cell monolayers achieve a level of 70-80% confluence, they are dissociated from the culture flasks using TrypLE™ cell dissociation media (ThermoFisher Scientific). Dissociated cells are pelleted by centrifugation at 300×g to remove the growth and dissociation media. Centrifuged cell pellets are flash frozen in liquid nitrogen (−320° F.) for 30 sec and stored frozen at −80° C. until the subsequent membrane preparation.
# A membrane preparation P2 pellet (second pellet from centrifugation procedure) is generated from harvested SK-N-MC frozen cultured cell pellets by diluting these cells on ice into 20 mM Tris-HCl buffer, pH 7.4, containing protease inhibitors (Pierce). Suspended cells are Dounce homogenized on ice and centrifuged at low speed (1000×g for 20 min at 4° C.) to remove cellular organelles and debris (P1 pellet). The supernatant, containing the soluble membrane fraction, is collected and subjected to a high speed centrifugation step (25,000×g for 1 hr at 4° C.) to isolate the resultant P2 membrane pellet. […] Protein concentration is determined using the Bradford Protein Assay (ThermoFisher Scientific). […]
# Data Analysis: Bound radioactivity may be counted using a MicroBeta® Trilux Scintillation Counter (PerkinElmer®). […] Relative IC50 values are calculated using a four-parameter logistic curve fitting program (GraphPad Prism v8.3.0). Equilibrium dissociation binding constants (Ki) for the compounds are calculated from the following equation: […]
row,Ki [nM],SMILES
1,0.35,"Cc1cc(N2CCC2)cc(OCc2ccc([C@@H](C)[C@@]3(C)C(=O)NC[C@@H]3CF)cc2)n1 [Example 1, (3R,4R)-3-[(1R)-1-[4-[[4-(azetidin-1-yl)-6-methyl-2-pyridyl]oxymethyl]phenyl]ethyl]-4-(fluoromethyl)-3-methyl-pyrrolidin-2-one]"
2,0.98,"Cc1cc(N2CC(F)C2)cc(OCc2ccc([C@@H](C)[C@@]3(C)C(=O)NC[C@@H]3C)cc2)n1 [Example 2, (3R,4R)-3-[(1R)-1-[4-[[4-(3-fluoroazetidin-1-yl)-6-methyl-2-pyridyl]oxymethyl]phenyl]ethyl]-3,4-dimethyl-pyrrolidin-2-one]"
3,0.93,"Cc1cc(N2CC(F)C2)cc(OCc2ccc([C@@H](C)[C@@]3(C)C(=O)NC[C@@H]3CF)cc2)n1 [Example 3, (3R,4R)-3-[(1R)-1-[4-[[4-(3-fluoroazetidin-1-yl)-6-methyl-2-pyridyl]oxymethyl]phenyl]ethyl]-4-(fluoromethyl)-3-methyl-pyrrolidin-2-one]"
